The text below walks through data of patent US7745436B2, “Disalt inhibitors of IL-12 production” (Synta Pharmaceuticals Corporation, priority 2004, dated 2010).

Data set [1] can be described thus: Solubility determination in water (vortex, sonication at ~50° C, HPLC of supernatant). The class given is physicochemical. To be noted: for Solubility: water, vortexed and sonicated ~5-10 min at ~50° C, HPLC. As to the method: The disalts described herein can have a relatively high solubility, e.g., water solubility. As used herein, the “solubility” of a disalt in a solvent refers to the maximum mass of a disalt that can be dissolved per unit volume of the solvent under accelerated dissolution conditions (50-60° C. with concommitant ultrasonic agitation of the disalt/solvent test sample). Unless otherwise indicated, solubility data is expressed in terms of units of milligrams (mg)/milliliter (mL), e.g., mg/mL.
The compound was weighed, and water was added to it such that the ratio of the sample and water of the mixture would be 100 mg/mL. The mixture was then shaken using a Vortex-Genie2 shaker (vortexed) and sonicated (˜5-10 min at ˜50° C). If a clear solution has been obtained, more compound was added to the solution, and a mixture was vortexed and sonicated until a homogeneous suspension was achieved. The suspension was then centrifuged at 10,000 rpm for about 10 min. The supernatant was taken out and diluted with 50/50 (v/v) EtOH/water, then the sample was analyzed by HPLC to determine the concentration.
The HPLC system consisted of the HP 1100 Model (Agilent, Wilmington, Del.) equipped with a model 1100 quaternary pump, a model 1100 autosampler, a model 1100 Diode-Array Detector for UV detection at 320 nm. The HPLC analysis was performed using an isocratic mobile phase consisting of acetonitrile-water containing 10 mM NH4OAc . Mobile phases were degassed and filtered through a solvent filtration apparatus and pumped at a constant rate of 1.0 mL/min. The separation was made on an XTerra MS C18 analytical column, 4.6 mm i.d.×150 mm, (Waters Corp., Milford, Mass., USA) fitted with a precolumn filter (XTerra MS C18, 3.9 mm×20mm). The column was maintained at 30° C. Data acquisition and instrument setting were controlled using HP Chemstation software (ver.8.03).

Data set [2] in a line: Solubility in water at fixed concentrations (5 mg per 0.1, 0.2 or 0.25 mL). It counts as physicochemical.

As for `CN(N=Cc1c[nH]c2ccccc12)c1cc(N2CCOCC2)nc(OCCc2ccccn2)n1.CS(=O)(=O)O.CS(=O)(=O)O` [{[(3)(2H^+)]^2+•[2(CH3SO3^−)]^2−}, N′-(1H-indol-3-ylmethylene)-N-methyl-N-[6-morpholin-4-yl-2-(2-pyridin-2-yl-ethoxy)-pyrimidin-4-yl]-hydrazine (3) dimesylate], the “Solubility” value in data set [1] is 306 ± 14 mg/mL. Compound `CN(N=Cc1c[nH]c2ccccc12)c1cc(N2CCOCC2)nc(OCCc2ccccn2)n1` gave a melting point of 130 to 140 °C.

As for `Cc1cccc(C=NNc2cc(N3CCOCC3)nc(OCCc3ccccn3)n2)c1.Cl` [{[(1)(2H^+)]^1+•[1(Cl^−)]^1−}, N-(3 -Methyl-benzylidene)-N′-[6-morpholin-4-yl-2-(2-pyridin-2-yl-ethoxy)-pyrimidin-4-yl]-hydrazine (1) hydrochloride], the “Solubility” value in data set [1] stood at 12.6 ± 0.4 mg/mL. Consider `C(=NNc1nc(OCCc2ccccn2)nc(N2CCOCC2)n1)c1c[nH]c2ccccc12`, for which the melting point lay in the range of 158 to 161 °C.

In the case of `Cc1cccc(C=NNc2cc(N3CCOCC3)nc(OCCc3ccccn3)n2)c1.Cl.Cl` [{[(1)(2H^+)]^2+•[2(Cl^−)]^2−}, N-(3-Methyl-benzylidene)-N′-[6-morpholin-4-yl-2-(2-pyridin-2-yl-ethoxy)-pyrimidin-4-yl]-hydrazine (1) dihydrogenchloride (dichloride)], the “solubility in water at a concentration of 5 mg/0.1 mL” value in data set [2] is “soluble”. Further, in data set [1], the “Solubility” value is 213 ± 5 mg/mL. Consider `Cc1cccc(C=NNc2cc(N3CCOCC3)nc(OCCc3ccccn3)n2)c1.O=[N+]([O-])O.O=[N+]([O-])O` [{[(1)(2H^+)]^2+•[2(NO3^−)]^2−}, N-(3-Methyl-benzylidene)-N′-[6-morpholin-4-yl-2-(2-pyridin-2-yl-ethoxy)-pyrimidin-4-yl]-hydrazine (1) dinitrate], for which the “solubility in water at a concentration of 5 mg/0.1 mL” value in data set [2] is “insoluble”. Moreover, the “solubility in water at a concentration of 5 mg/0.2 mL” value in data set [2] (5 mg/0.2 mL) was “partially soluble”. Also, the “solubility in water at a concentration of 5 mg/0.25 mL” value in data set [2] (5 mg/0.25 mL) is on record as “partially soluble”. Besides, the “Solubility” value in data set [1] was found to be 83.4 ± 0.2 mg/mL.

With `CS(=O)(=O)O.CS(=O)(=O)O.Cc1cccc(C=NNc2cc(N3CCOCC3)nc(OCCc3ccccn3)n2)c1` [{[(1)(2H^+)]^2+•[2(CH3SO3^−)]^2−}, N-(3-Methyl-benzylidene)-N′-[6-morpholin-4-yl-2-(2-pyridin-2-yl-ethoxy)-pyrimidin-4-yl]-hydrazine (1) dimethanesulfonate (dimesylate)], in data set [1] (versus monosalt {[(1)(1H^+)]^1+.[1(CH3SO3^−)]}), the “solubility of disalt relative to the solubility of the corresponding monosalt” value is given as “more than ten times greater”. Further, the “Solubility” value in data set [1] was found to be 831 ± 5 mg/mL. Turning to `CS(=O)(=O)O.Cc1cccc(C=NNc2cc(N3CCOCC3)nc(OCCc3ccccn3)n2)c1` [{[(1)(1H^+)]^1+•[1(CH3SO3^−)]^1−}, N-(3-Methyl-benzylidene)-N′-[6-morpholin-4-yl-2-(2-pyridin-2-yl-ethoxy)-pyrimidin-4-yl]-hydrazine 1 methanesulfonate (mesylate)], the “Solubility” value in data set [1] turned out to be 52.0 ± 0.1 mg/mL. `C(=NNc1cc(N2CCOCC2)nc(OCCc2ccccn2)n1)c1c[nH]c2ccccc12.CS(=O)(=O)O.CS(=O)(=O)O` [{[(2)(2H^+)]^2+•[2(CH3SO3^−)]^2−}, N-(1H-indol-3-ylmethylene)—N′-[6-morpholin-4-yl-2-(2-pyridin-2-yl-ethoxy)-pyrimidin-4-yl]-hydrazine (2) dimethanesulfonate (dimesylate)]: the “Solubility” value in data set [1] was found to be 454 ± 5 mg/mL. Compound `C(=NNc1cc(N2CCOCC2)nc(OCCc2ccccn2)n1)c1c[nH]c2ccccc12` registered a melting point of 160 to 165 °C. The compound `Cc1cccc(C=NNc2nc(OCCc3ccccn3)nc(N3CCOCC3)n2)c1` came in with a melting point of 143 to 147 °C.

A word on the Solubility: it is how much of the substance goes into solution per volume. The low end stands for a poorly soluble substance, the high end for a readily soluble substance. Broadly, the melting point is the temperature, or range, at which the solid turns liquid.
